# Experimental data: article PMC11995216, “End-to-End Backbone Cyclization Enhances Passive Permeability of bRo5 Oligomeric Depsipeptides with Nonlinear Size Dependence” (ACS Medicinal Chemistry Letters, 2025)
# Several values for one entry are separate records, joined by “and”; a condition that tells them apart may be missing. Identical values can stand only once. Like-named read-outs stand apart in the source and are kept apart here.
# Experiments:
# [1] = UV detection
# PAMPA [2] = conditions: UV detection
# [3] = PAMPA, 500 uM
# in vitro = conditions: PAMPA, Papp
# [4] = calculated using Supplement Equation 1, UV detection
# [5] = initial concentration 500 uM, UV detection
# PAMPA [6] = conditions: UV detection, initial concentration 500 uM
smiles,measurement,setting,value
CCCCC[C@H](OC(=O)[C@@H](C)N(C)C(=O)[C@H](CCCCC)OC(=O)[C@@H](C)N(C)C(=O)[C@H](CCCCC)OC(=O)[C@@H](C)N(C)C(=O)[C@H](CCCCC)OC(=O)[C@@H](C)N(C)C(=O)OC(C)(C)C)C(=O)OCc1ccccc1 [Compound L1.4],% recovery,"[1]; Well 1 / %R, Well 1",94%
same,% recovery,"[1]; Well 2 / %R, Well 2",87% (2×) and 92% (2×)
same,% recovery,"[1]; Well 3 / %R, Well 3",99% (2×) and 87% (2×)
same,% recovery,"[1]; Well 4 / %R, Well 4",93% (2×) and 85% (2×)
same,% recovery,"[1]; Well 5 / %R, Well 5",87% (2×) and 86% (2×)
same,Papp,PAMPA [2]; Papp (x 10^-6 cm/s) / [row 1],1.61 ×10⁻⁶ cm/s
same,Papp,PAMPA [2]; Papp (x 10^-6 cm/s) / [row 2],2.02 ×10⁻⁶ cm/s
same,Papp,PAMPA [2]; Papp (x 10^-6 cm/s) / [row 3],2.01 ×10⁻⁶ cm/s
same,Papp,PAMPA [2]; Papp (x 10^-6 cm/s) / [row 4],2.03 ×10⁻⁶ cm/s
same,Papp,PAMPA [2]; Papp (x 10^-6 cm/s) / [row 5],2.24 ×10⁻⁶ cm/s
same,Papp,PAMPA [2]; Papp (x 10^-6 cm/s) / [row 6],2.09 ×10⁻⁶ cm/s
same,Papp,PAMPA [2]; Papp (x 10^-6 cm/s) / [row 7],1.63 ×10⁻⁶ cm/s
same,Papp,PAMPA [2]; Papp (x 10^-6 cm/s) / [row 8],1.88 ×10⁻⁶ cm/s
same,Papp,PAMPA [2]; Papp (x 10^-6 cm/s) / [row 9],2.15 ×10⁻⁶ cm/s
same,Papp,PAMPA [2]; Papp (x 10^-6 cm/s) / [row 10],1.75 ×10⁻⁶ cm/s
same,Papp,PAMPA [2]; Papp (x 10^-6 cm/s) / experiment 1,1.61 ×10⁻⁶ cm/s
same,Papp,PAMPA [2]; Papp (x 10^-6 cm/s) / experiment 2,2.02 ×10⁻⁶ cm/s
same,Papp,PAMPA [2]; Papp (x 10^-6 cm/s) / experiment 3,2.01 ×10⁻⁶ cm/s
same,Papp,PAMPA [2]; Papp (x 10^-6 cm/s) / experiment 4,2.03 ×10⁻⁶ cm/s
same,Papp,PAMPA [2]; Papp (x 10^-6 cm/s) / experiment 5,2.24 ×10⁻⁶ cm/s
same,Papp,PAMPA [2]; Papp (x 10^-6 cm/s) / experiment 6,2.09 ×10⁻⁶ cm/s
same,Papp,PAMPA [2]; Papp (x 10^-6 cm/s) / experiment 7,1.63 ×10⁻⁶ cm/s
same,Papp,PAMPA [2]; Papp (x 10^-6 cm/s) / experiment 8,1.88 ×10⁻⁶ cm/s
same,Papp,PAMPA [2]; Papp (x 10^-6 cm/s) / experiment 9,2.15 ×10⁻⁶ cm/s
same,Papp,PAMPA [2]; Papp (x 10^-6 cm/s) / experiment 10,1.75 ×10⁻⁶ cm/s
same,Δ % diffusion,[3],↑14%
same,Papp at 500 uM,in vitro,1.94 ± 0.22 ×10⁻⁶ cm/s
same,%T,"[4]; Well 1 / %T, Well 1",0.25% (2×) and 0.31% (2×)
same,%T,"[4]; Well 2 / %T, Well 2",0.3% (2×) and 0.25% (2×)
same,%T,"[4]; Well 3 / %T, Well 3",0.3% (2×) and 0.28% (2×)
same,%T,"[4]; Well 4 / %T, Well 4",0.31% (2×) and 0.32% (2×)
same,%T,"[4]; Well 5 / %T, Well 5",0.33% (2×) and 0.26% (2×)
same,donor concentration after incubation,"[5]; Well 1 / [donor], Well 1",417 µM and 390 µM
same,donor concentration after incubation,"[5]; Well 1 / [donor], Well 1, standard curve",417 µM and 390 µM
same,donor concentration after incubation,"[5]; Well 2 / [donor], Well 2",379 µM and 406 µM
same,donor concentration after incubation,"[5]; Well 2 / [donor], Well 2, standard curve",379 µM and 406 µM
same,donor concentration after incubation,"[5]; Well 3 / [donor], Well 3",432 µM and 382 µM
same,donor concentration after incubation,"[5]; Well 3 / [donor], Well 3, standard curve",432 µM and 382 µM
same,donor concentration after incubation,"[5]; Well 4 / [donor], Well 4",404 µM and 364 µM
same,donor concentration after incubation,"[5]; Well 4 / [donor], Well 4, standard curve",404 µM and 364 µM
same,donor concentration after incubation,"[5]; Well 5 / [donor], Well 5",372 µM and 379 µM
same,donor concentration after incubation,"[5]; Well 5 / [donor], Well 5, standard curve",372 µM and 379 µM
same,Acceptor Concentration,PAMPA [6]; Acceptor Concentration (uM) / [row 1],52.3 µM
same,Acceptor Concentration,PAMPA [6]; Acceptor Concentration (uM) / [row 2],57.9 µM
same,Acceptor Concentration,PAMPA [6]; Acceptor Concentration (uM) / [row 3],64.4 µM
same,Acceptor Concentration,PAMPA [6]; Acceptor Concentration (uM) / [row 4],61.4 µM
same,Acceptor Concentration,PAMPA [6]; Acceptor Concentration (uM) / [row 5],62.2 µM
same,Acceptor Concentration,PAMPA [6]; Acceptor Concentration (uM) / [row 6],61.3 µM
same,Acceptor Concentration,PAMPA [6]; Acceptor Concentration (uM) / [row 7],51.5 µM
same,Acceptor Concentration,PAMPA [6]; Acceptor Concentration (uM) / [row 8],55 µM
same,Acceptor Concentration,PAMPA [6]; Acceptor Concentration (uM) / [row 9],59.1 µM
same,Acceptor Concentration,PAMPA [6]; Acceptor Concentration (uM) / [row 10],51.7 µM
same,Acceptor Concentration,PAMPA [6]; Acceptor Concentration (uM) / experiment 1,52.3 µM
same,Acceptor Concentration,PAMPA [6]; Acceptor Concentration (uM) / experiment 2,57.9 µM
same,Acceptor Concentration,PAMPA [6]; Acceptor Concentration (uM) / experiment 3,64.4 µM
same,Acceptor Concentration,PAMPA [6]; Acceptor Concentration (uM) / experiment 4,61.4 µM
same,Acceptor Concentration,PAMPA [6]; Acceptor Concentration (uM) / experiment 5,62.2 µM
same,Acceptor Concentration,PAMPA [6]; Acceptor Concentration (uM) / experiment 6,61.3 µM
same,Acceptor Concentration,PAMPA [6]; Acceptor Concentration (uM) / experiment 7,51.5 µM
same,Acceptor Concentration,PAMPA [6]; Acceptor Concentration (uM) / experiment 8,55 µM
same,Acceptor Concentration,PAMPA [6]; Acceptor Concentration (uM) / experiment 9,59.1 µM
same,Acceptor Concentration,PAMPA [6]; Acceptor Concentration (uM) / experiment 10,51.7 µM
